# Measured values published in patent US20100069632A1, “SALTS OF PYRROLOPYRIMIDINONE DERIVATIVES AND PROCESS FOR PREPARING THE SAME” (SK CHEMICALS CO., LTD, priority 2006, published 2010).
# Structures can show the parent of a compound that is named as a salt.
# How the values were obtained:
# [1] = Water and atmospheric (storage) stability: total impurities by liquid chromatography after storage; assay type: physicochemical; settings: for Storage stability compared with the SK-3530 dihydrochloride salt: summary of Tables 1 to 3
# Protocol: This test is for confirming the storage stability of SK-3530 salt.
# A sufficient stability is required to process a drug into a particular medication form. For instance, preparation into tablet or capsule requires atmospheric stability and preparation into injection may require water stability.
# The following Table 1 (25° C., 75% humidity), Table 2 (40° C., 60% humidity) and Table 3 (50° C., 75% humidity) show the content of total impurities measured by liquid chromatography after storing dihydrochloride (2HCl), gentisate, maleate, citrate, fumarate and hemitartrate salts of SK-3530 for 1 week and 3 weeks.
# [2] = Photostability test (UV and visible light), impurity content and color change; assay type: physicochemical; settings: for Color change, Initial / Impurity content (%), Initial: photostability test; for Photostability against UV and visible light compared with the SK-3530 dihydrochloride salt: summary of Tables 4 and 5; for Color change, UV / Impurity content (%), UV: total UV radiation 200 W·h/m^2; for Color change, UV / Impurity content (%), UV / Color change, Visible / Impurity content (%), Visible: 25° C., 60% humidity; for Impurity content (%), UV / Impurity content (%), Visible: Petri dish; for Color change, Visible / Impurity content (%), Visible: total visible light radiation 1080 klux/m^2h
# Protocol: The following Table 4 and Table 5 show the photostability test result for dihydrochloride salt (2HCl), gentisate, maleate, citrate, fumarate and hemitartrate salts of SK-3530. The total ultraviolet (UV) radiation was 200 W·h/m^2 and the total visible light radiation was 1080 klux/m^2h. Each salt was kept on a Petri dish under the condition of 25° C. and 60% humidity.
# [3] = Thermal stability test at 105° C., impurity content and color change; assay type: physicochemical; settings: for Impurity content (%), 3 hours / Color change, 3 hours / Impurity content (%), 48 hours / Color change, 48 hours: dryer at 105° C.; for Color change, 3 hours / Color change, 48 hours: macroscopic observation; for Thermal stability compared with the SK-3530 dihydrochloride salt: summary of Tables 6 and 7; for Color change, Initial / Impurity content (%), Initial: thermal stability test
# Protocol: The following Table 6 and Table 7 show the thermal stability test result for dihydrochloride salt (2HCl), gentisate, maleate, citrate, fumarate and hemitartrate salts of SK-3530. Each salt was placed on a Petri dish and kept in a dryer at 105° C. Following macroscopic observation at 3 hours and 48 hours later, the content of impurities was measured with liquid chromatography.
# [4] = Hygroscopicity; assay type: physicochemical; settings: statement in words, no test described
# [5] = Solubility; assay type: physicochemical; settings: statement in words, no test described
# [6] = target: PDE-5 (Homo sapiens, UniProt O76074); settings: statement in words; cited from earlier work
SMILES,"Impurity content (%) at 25° C., 75% humidity, 1 week [1] [%]","Impurity content (%) at 25° C., 75% humidity, 3 weeks [1] [%]","Impurity content (%) at 25° C., 75% humidity, Initial [1] [%]","Impurity content (%) at 40° C., 60% humidity, 1 week [1] [%]","Impurity content (%) at 40° C., 60% humidity, 3 weeks [1] [%]","Impurity content (%) at 40° C., 60% humidity, Initial [1] [%]","Impurity content (%) at 50° C., 75% humidity, 1 week [1] [%]","Impurity content (%) at 50° C., 75% humidity, 3 weeks [1] [%]","Impurity content (%) at 50° C., 75% humidity, Initial [1] [%]","Color change, Initial [2]","Impurity content (%), Initial [2] [%]","Color change, UV [2]","Impurity content (%), UV [2] [%]","Color change, Visible [2]","Impurity content (%), Visible [2] [%]","Impurity content (%), 3 hours [3] [%]","Color change, 3 hours [3]","Impurity content (%), 48 hours [3] [%]","Color change, 48 hours [3]","Color change, Initial [3]",other results
CCCOc1ccc(S(=O)(=O)N2CCN(CCO)CC2)cc1-c1nc2c(CCC)cn(CC)c2c(=O)[nH]1 [SK-3530 citrate salt],0.15,0.15,0.12,0.13,0.14,0.12,0.14,0.14,0.12,White,0.12,White,0.37,White,0.14,0.30,White,1.81,White,White,"Storage stability compared with the SK-3530 dihydrochloride salt [1]: much superior; Photostability against UV and visible light compared with the SK-3530 dihydrochloride salt [2]: much superior; Thermal stability compared with the SK-3530 dihydrochloride salt [3]: much superior; Impurity content (%), Initial [3]: 0.12%; Hygroscopicity [4]: non-hygroscopic"
"CCCOc1ccc(S(=O)(=O)N2CCN(CCO)CC2)cc1-c1nc2c(CCC)cn(CC)c2c(=O)[nH]1.Cl.Cl [SK-3530 dihydrochloride salt, reference compound]",0.24,0.31,0.20,0.24,0.38,0.20,0.27,0.42,0.20,White,0.20,Brown,5.92,Yellow,1.37,3.06,White,14.37,Yellow,White,"Impurity content (%), Initial [3]: 0.20%; Solubility [5]: good solubility; Hygroscopicity [4]: hygroscopic"
CCCOc1ccc(S(=O)(=O)N2CCN(CCO)CC2)cc1-c1nc2c(CCC)cn(CC)c2c(=O)[nH]1 [SK-3530 fumarate salt],0.02,0.03,0.02,0.02,0.05,0.02,0.02,0.05,0.02,White,0.02,Pale yellow,0.08,White,0.07,0.11,White,0.61,White,White,"Storage stability compared with the SK-3530 dihydrochloride salt [1]: much superior; Photostability against UV and visible light compared with the SK-3530 dihydrochloride salt [2]: much superior; Thermal stability compared with the SK-3530 dihydrochloride salt [3]: much superior; Impurity content (%), Initial [3]: 0.02%; Hygroscopicity [4]: non-hygroscopic"
CCCOc1ccc(S(=O)(=O)N2CCN(CCO)CC2)cc1-c1nc2c(CCC)cn(CC)c2c(=O)[nH]1 [SK-3530 gentisate salt],0.09,0.12,0.09,0.10,0.10,0.09,0.09,0.10,0.09,White,0.09,Pale yellow,0.36,Pale yellow,0.17,0.09,White,0.13,White,White,"Storage stability compared with the SK-3530 dihydrochloride salt [1]: much superior; Photostability against UV and visible light compared with the SK-3530 dihydrochloride salt [2]: much superior; Thermal stability compared with the SK-3530 dihydrochloride salt [3]: much superior; Impurity content (%), Initial [3]: 0.09%; Hygroscopicity [4]: non-hygroscopic"
CCCOc1ccc(S(=O)(=O)N2CCN(CCO)CC2)cc1-c1nc2c(CCC)cn(CC)c2c(=O)[nH]1 [SK-3530 hemitartrate salt],0.09,0.13,0.07,0.10,0.14,0.07,0.11,0.13,0.07,White,0.07,White,0.52,White,0.21,0.14,White,0.70,White,White,"Storage stability compared with the SK-3530 dihydrochloride salt [1]: much superior; Photostability against UV and visible light compared with the SK-3530 dihydrochloride salt [2]: much superior; Thermal stability compared with the SK-3530 dihydrochloride salt [3]: much superior; Impurity content (%), Initial [3]: 0.07%; Hygroscopicity [4]: non-hygroscopic"
CCCOc1ccc(S(=O)(=O)N2CCN(CCO)CC2)cc1-c1nc2c(CCC)cn(CC)c2c(=O)[nH]1 [SK-3530 maleate salt],0.12,0.12,0.12,0.12,0.12,0.12,0.15,0.19,0.12,White,0.12,White,0.35,White,0.14,0.15,White,0.74,White,White,"Storage stability compared with the SK-3530 dihydrochloride salt [1]: much superior; Photostability against UV and visible light compared with the SK-3530 dihydrochloride salt [2]: much superior; Thermal stability compared with the SK-3530 dihydrochloride salt [3]: much superior; Impurity content (%), Initial [3]: 0.12%; Hygroscopicity [4]: non-hygroscopic"
"CCCOc1ccc(S(=O)(=O)N2CCN(CCO)CC2)cc1-c1nc2c(CCC)cn(CC)c2c(=O)[nH]1 [SK-3530, 5-ethyl-2-{5-[4-(2-hydroxyethyl)piperazin-1-ylsulfonyl]-2-n-propoxyphenyl}-7-n-propyl-I-3,5-dihydro-4H-pyrrolo[3,2-d]pyrimidin-4-one]",–,–,–,–,–,–,–,–,–,–,–,–,–,–,–,–,–,–,–,–,Selectivity for PDE-5 over other PDEs [6]: excellent selective inhibitor
